Laboratory results from patent publication US12606544B2, “JAK1 selective kinase inhibitor” (DIZAL (JIANGSU) PHARMACEUTICAL CO., LTD., priority 2019, dated 2026).

Columns and labels:
[1] = Metabolic stability in rat hepatocytes; format: in vitro ADME; settings: 1 μM compound, male rat hepatocytes
Method: (§1) Rat hepatocytes in male gender and human liver microsome were obtained from commercial vendors (e.g., BioreclamationIVT) and stored at −150° C. prior to use.
For metabolic stability assay with rat heptatocytes, vials of cryopreserved hepatocytes or microsome were removed from storage, ensured that vials remain at cryogenic temperatures. 1 μM of each test compound (in Acetonitrile; 0.01% DMSO) was incubated with 250 μL of hepatocyte cells (1×10^6 cells/ml) in a 96 deep well plate. […] 40 μL of supernatant was diluted to 200 μL with pure water and analyzed using LC-MS/MS.
In vitro hepatocyte clearance was estimated based on determination of elimination half-life (T1/2) of compounds disappearance from their initial concentrations. Peak area ratios of each compound (test or control) to IS was calculated. Ln (% Control) versus Incubation Time (min) curve was plotted, and the slope of a linear fitting line was calculated. Drug elimination rate constant k (min−1), T1/2 (min), and in vitro intrinsic clearance CLint (μL/min/E6) was calculated according to the following equations: k=−slope T1/2=0.693/k CLint=k/Chep Where Chep (cells×μL^−1) is the cell concentration in the incubation system.

JAK2 = target: T1, JAK2 (Homo sapiens, UniProt O60674); assay: Lance Ultra Kinase Assay, recombinant JAK2; format: biochemical; settings: 5 mM ATP
T1 construct: purchased Carna Biosciences
Procedure, shortened: (§2)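 Each recombinant kinase preincubated with or without compound 15 min at room temperature, then reaction started with 5 mM ATP and substrate peptide for 60 min. Stopped with EDTA-containing detection mix; TR-FRET read at ex 320 nm, 665/615 nm emission ratio taken as kinase activity.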

TYK2 = target: T2, TYK2 (Homo sapiens, UniProt P29597); assay: Lance Ultra Kinase Assay, recombinant TYK2; format: biochemical; settings: 5 mM ATP
T2 construct: purchased Carna Biosciences
Procedure, shortened: as §2

JAK1 = target: T3, JAK1 (Homo sapiens, UniProt P23458); assay: Lance Ultra Kinase Assay, recombinant JAK1; format: biochemical; settings: 5 mM ATP
T3 construct: purchased Carna Biosciences
Procedure, shortened: as §2

phosphorylation of STAT6 = assay: Cellular p-STAT6 assay, IL-13 stimulated THP-1 cells, flow cytometry; format: cell-based; settings: Homo sapiens, THP-1, THP-1 cells, IL-13 10 ng/ml; read-out: pSTAT6 IC50
Procedure, shortened: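 THP-1 cells (2×10^5/well, RPMI1640 + 10% FBS) preincubated 60 min at room temperature with compound (1 μM to 0.3 nM), then stimulated 30 min with IL-13 at 10 ng/ml. Fixed, methanol-permeabilized cells stained with PE anti-pSTAT6 and read by flow cytometry; IC50 from dose-response curves.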

JAK3 = target: T4, JAK3 (Homo sapiens, UniProt P52333); assay: Lance Ultra Kinase Assay, recombinant JAK3; format: biochemical; settings: 5 mM ATP
T4 construct: purchased Carna Biosciences
T4 sequence (P52333 1-1124): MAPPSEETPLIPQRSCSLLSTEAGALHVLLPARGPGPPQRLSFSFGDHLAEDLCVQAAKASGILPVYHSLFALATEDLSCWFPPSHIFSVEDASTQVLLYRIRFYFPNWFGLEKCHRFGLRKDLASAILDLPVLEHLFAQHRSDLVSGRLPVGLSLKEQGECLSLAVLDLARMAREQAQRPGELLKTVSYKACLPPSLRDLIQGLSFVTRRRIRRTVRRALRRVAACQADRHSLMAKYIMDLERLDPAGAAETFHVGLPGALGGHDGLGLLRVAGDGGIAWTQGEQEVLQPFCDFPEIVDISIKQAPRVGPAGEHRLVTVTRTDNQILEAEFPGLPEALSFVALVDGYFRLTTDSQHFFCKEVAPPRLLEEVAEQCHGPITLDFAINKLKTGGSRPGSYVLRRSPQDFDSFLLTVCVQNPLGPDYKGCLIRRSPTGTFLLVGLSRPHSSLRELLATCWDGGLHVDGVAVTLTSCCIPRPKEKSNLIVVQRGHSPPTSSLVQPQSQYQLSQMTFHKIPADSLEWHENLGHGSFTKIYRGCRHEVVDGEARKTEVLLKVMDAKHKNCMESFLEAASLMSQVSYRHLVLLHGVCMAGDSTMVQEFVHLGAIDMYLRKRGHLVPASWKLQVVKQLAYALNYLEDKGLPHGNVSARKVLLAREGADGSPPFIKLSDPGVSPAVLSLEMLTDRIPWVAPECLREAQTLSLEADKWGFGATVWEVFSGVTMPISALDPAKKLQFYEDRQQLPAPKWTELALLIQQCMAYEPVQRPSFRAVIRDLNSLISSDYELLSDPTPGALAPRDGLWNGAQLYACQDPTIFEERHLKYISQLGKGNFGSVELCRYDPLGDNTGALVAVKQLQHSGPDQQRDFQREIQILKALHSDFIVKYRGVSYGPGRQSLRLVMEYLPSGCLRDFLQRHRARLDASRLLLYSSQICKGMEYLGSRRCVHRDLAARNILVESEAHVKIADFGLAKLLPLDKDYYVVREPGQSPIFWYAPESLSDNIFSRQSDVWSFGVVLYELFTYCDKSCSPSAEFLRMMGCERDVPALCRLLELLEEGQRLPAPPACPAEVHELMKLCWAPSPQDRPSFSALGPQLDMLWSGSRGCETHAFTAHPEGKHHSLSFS
Procedure, shortened: as §2

[2] = Metabolic stability in human liver microsome; format: in vitro ADME; settings: human, pooled human liver microsomes, pH 7.4, 1 μM compound, 1 mg/mL microsomes, NADPH
Method: as §1
For metabolic stability assay with human liver microsome, 1 μM of each test compound was incubated with 1 mg/mL of microsomes (Pooled HLM with 20 mg/ml protein cone) at 37° C. in 250 μL of buffer (100 mM phosphate buffer, pH-7.4) containing 1 mM NADPH solution. […] was quenched with 5 volumes chilled acetonitrile at different time points 0, 0.5, 5, 10, 15, 20 and 30 min in a fresh 96 well plate. The quench plate was centrifuged at 4000 rpm for 15 min. 40 μL of supernatant was diluted to 200 μL with pure water and analyzed using LC-MS/MS. […]

T2 sequence (P29597 whole entry): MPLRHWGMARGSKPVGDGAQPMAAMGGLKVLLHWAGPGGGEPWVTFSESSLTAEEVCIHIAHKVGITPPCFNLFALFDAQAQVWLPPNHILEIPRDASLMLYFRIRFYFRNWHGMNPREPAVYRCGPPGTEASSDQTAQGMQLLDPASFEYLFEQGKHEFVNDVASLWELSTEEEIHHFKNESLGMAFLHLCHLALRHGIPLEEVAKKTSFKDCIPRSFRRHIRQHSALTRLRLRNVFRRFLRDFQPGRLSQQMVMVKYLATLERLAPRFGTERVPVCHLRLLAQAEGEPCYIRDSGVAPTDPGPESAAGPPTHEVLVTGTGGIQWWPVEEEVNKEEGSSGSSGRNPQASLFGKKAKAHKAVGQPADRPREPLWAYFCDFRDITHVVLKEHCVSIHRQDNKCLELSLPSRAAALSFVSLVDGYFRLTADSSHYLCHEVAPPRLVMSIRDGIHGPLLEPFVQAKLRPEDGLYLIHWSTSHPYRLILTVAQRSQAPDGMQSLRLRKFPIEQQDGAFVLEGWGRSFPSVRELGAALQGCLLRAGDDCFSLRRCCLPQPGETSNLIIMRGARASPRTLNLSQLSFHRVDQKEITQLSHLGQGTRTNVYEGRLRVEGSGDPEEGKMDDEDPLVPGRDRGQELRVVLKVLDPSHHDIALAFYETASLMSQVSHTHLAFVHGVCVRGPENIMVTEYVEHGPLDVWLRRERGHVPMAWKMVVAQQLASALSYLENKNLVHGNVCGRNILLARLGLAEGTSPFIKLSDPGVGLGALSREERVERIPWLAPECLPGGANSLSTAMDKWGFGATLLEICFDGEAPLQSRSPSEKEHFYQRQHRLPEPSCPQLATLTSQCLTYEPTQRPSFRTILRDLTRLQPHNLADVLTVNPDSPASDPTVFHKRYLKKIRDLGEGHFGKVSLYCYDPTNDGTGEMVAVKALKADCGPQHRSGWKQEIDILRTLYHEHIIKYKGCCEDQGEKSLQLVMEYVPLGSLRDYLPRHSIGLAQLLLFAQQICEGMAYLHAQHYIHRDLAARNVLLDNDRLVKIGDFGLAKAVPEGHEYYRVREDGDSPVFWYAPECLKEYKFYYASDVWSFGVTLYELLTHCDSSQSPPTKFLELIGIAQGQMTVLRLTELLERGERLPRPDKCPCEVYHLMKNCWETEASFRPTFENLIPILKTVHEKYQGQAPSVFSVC
T1 sequence (O60674 whole entry): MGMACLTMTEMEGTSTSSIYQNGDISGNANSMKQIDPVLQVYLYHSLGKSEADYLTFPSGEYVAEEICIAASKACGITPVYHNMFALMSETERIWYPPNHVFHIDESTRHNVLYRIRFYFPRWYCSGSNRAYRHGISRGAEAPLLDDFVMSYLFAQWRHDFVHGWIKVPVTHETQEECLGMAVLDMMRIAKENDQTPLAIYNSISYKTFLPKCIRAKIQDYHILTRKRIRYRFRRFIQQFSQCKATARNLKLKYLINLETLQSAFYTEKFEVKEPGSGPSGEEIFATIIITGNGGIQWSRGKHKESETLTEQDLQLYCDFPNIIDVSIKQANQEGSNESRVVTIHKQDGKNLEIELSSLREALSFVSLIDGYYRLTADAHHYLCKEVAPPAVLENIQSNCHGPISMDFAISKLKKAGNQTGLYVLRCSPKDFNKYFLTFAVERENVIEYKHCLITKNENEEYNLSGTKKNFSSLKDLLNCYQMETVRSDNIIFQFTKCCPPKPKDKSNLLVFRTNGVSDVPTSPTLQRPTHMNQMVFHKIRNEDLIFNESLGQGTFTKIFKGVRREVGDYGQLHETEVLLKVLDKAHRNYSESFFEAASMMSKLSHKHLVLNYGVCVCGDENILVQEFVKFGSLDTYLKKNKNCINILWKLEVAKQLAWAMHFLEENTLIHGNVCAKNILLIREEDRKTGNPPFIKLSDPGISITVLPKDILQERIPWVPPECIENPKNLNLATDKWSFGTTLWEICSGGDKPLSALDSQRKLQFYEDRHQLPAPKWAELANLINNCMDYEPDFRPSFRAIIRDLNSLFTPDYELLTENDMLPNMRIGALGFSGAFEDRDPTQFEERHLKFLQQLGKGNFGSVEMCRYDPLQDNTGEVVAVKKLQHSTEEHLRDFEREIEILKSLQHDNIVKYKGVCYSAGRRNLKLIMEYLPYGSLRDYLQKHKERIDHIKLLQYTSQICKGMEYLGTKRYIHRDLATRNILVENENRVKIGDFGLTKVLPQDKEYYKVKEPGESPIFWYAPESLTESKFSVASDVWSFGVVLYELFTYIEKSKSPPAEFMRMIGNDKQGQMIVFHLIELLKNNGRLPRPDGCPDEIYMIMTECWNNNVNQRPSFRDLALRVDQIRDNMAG
T3 sequence (P23458 whole entry): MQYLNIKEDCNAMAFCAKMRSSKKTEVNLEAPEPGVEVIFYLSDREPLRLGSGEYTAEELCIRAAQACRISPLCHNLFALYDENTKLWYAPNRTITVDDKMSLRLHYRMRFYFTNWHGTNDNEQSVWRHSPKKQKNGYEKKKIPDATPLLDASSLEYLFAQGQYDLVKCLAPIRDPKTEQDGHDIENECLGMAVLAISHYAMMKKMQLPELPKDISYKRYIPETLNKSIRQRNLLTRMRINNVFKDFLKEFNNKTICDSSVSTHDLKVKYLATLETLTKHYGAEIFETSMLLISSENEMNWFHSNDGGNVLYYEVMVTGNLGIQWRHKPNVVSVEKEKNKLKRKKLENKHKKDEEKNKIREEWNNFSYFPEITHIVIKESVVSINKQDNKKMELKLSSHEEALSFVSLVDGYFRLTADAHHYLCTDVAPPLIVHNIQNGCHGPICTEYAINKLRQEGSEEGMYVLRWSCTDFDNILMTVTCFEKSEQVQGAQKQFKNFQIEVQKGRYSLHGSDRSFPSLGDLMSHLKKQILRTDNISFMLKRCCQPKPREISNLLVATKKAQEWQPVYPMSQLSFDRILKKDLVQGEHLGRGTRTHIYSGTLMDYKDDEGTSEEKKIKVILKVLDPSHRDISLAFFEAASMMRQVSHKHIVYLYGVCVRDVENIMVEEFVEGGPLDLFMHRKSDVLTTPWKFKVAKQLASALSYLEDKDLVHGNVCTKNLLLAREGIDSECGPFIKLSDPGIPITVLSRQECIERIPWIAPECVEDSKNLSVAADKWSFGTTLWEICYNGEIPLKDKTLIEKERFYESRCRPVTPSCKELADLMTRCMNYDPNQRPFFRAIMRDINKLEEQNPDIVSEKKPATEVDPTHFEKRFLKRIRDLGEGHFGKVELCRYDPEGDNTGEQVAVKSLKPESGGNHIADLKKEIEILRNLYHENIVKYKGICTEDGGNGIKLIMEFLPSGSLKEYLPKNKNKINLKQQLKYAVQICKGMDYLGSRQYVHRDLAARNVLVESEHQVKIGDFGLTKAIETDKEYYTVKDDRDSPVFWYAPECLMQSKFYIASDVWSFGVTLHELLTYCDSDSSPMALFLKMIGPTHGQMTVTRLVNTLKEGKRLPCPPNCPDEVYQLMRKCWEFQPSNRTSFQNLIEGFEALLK

SMILES | Rat Hepatocyte CLint [1] | IC50 (JAK2) | IC50 (TYK2) | IC50 (JAK1) | IC50 (phosphorylation of STAT6) | IC50 (JAK3) | microsomal CLint at 1 μM [2]
COC[C@H](C(=O)Nc1cccc2c(-c3nc(Nc4ccc5c(c4)C(=O)NCC5)ncc3F)c[nH]c12)N1CCN(C)CC1 [Example 35, (R)-N-(3-(5-fluoro-2-((1-oxo-1,2,3,4-tetrahydroisoquinolin-7-yl)amino)pyrimidin-4-yl)-1H-indol-7-yl)-3-methoxy-2-(4-methylpiperazin-1-yl)propanamide] | 2.2 μL/min/10^6 cells | 199 nM | 2040 nM | 0.26 nM | 11.3 nM | > 10000 nM | 9.2 µL/min/mg
CCOC(=O)c1ccc(Nc2ncc(F)c(-c3c[nH]c4c(NC(=O)[C@@H](COC)N5CCN(C)CC5)cccc34)n2)cn1 [Example 36, ethyl (R)-5-((5-fluoro-4-(7-(3-methoxy-2-(4-methylpiperazin-1-yl)propanamido)-1H-indol-3-yl)pyrimidin-2-yl)amino)picolinate] | >300 μL/min/10^6 cells | 491 nM | 4610 nM | 0.29 nM | 11.5 nM | > 10000 nM | > 300 µL/min/mg
COC[C@H](C(=O)Nc1cccc2c(-c3nc(Nc4ccc5nc[nH]c5c4)ncc3F)c[nH]c12)N1CCN(C)CC1 [Example 45, (R)-N-(3-(2-((1H-benzo[d]imidazol-6-yl)amino)-5-fluoropyrimidin-4-yl)-1H-indol-7-yl)-3-methoxy-2-(4-methylpiperazin-1-yl)propanamide] | 2.7 μL/min/10^6 cells | 131 nM | 1290 nM | 0.14 nM | 13.4 nM | > 10000 nM | 45.2 µL/min/mg
COC[C@H](C(=O)Nc1cccc2c(-c3nc(Nc4ccc(NC(C)=O)nc4)ncc3F)c[nH]c12)N1CCN(C)CC1 [Example 48, (R)-N-(3-(2-((6-acetamidopyridin-3-yl)amino)-5-fluoropyrimidin-4-yl)-1H-indol-7-yl)-3-methoxy-2-(4-methylpiperazin-1-yl)propanamide] | 1.6 μL/min/10^6 cells | 379 nM | 1700 nM | 0.27 nM | 14 nM | > 10000 nM | 69.1 µL/min/mg
COC[C@H](C(=O)Nc1cccc2c(-c3nc(Nc4cnn(-c5ccccc5CO)c4)ncc3F)c[nH]c12)N1CCN(C)CC1 [Example 53, (R)-N-(3-(5-fluoro-2-((1-(2-(hydroxymethyl)phenyl)-1H-pyrazol-4-yl)amino)pyrimidin-4-yl)-1H-indol-7-yl)-3-methoxy-2-(4-methylpiperazin-1-yl)propanamide] | 17.4 μL/min/10^6 cells | 180 nM | 1660 nM | 0.22 nM | 15 nM | > 10000 nM | 27.9 µL/min/mg
COC[C@H](C(=O)Nc1cccc2c(-c3nc(Nc4ccc(CO)cn4)ncc3F)c[nH]c12)N1CCN(C)CC1 [Example 59, (R)-N-(3-(5-fluoro-2-((5-(hydroxymethyl)pyridin-2-yl)amino)pyrimidin-4-yl)-1H-indol-7-yl)-3-methoxy-2-(4-methylpiperazin-1-yl)propanamide] | >300 μL/min/10^6 cells | 2220 nM | > 10000 nM | 131 nM | 17.4 nM | > 10000 nM | 10.7 µL/min/mg
COC[C@H](C(=O)Nc1cccc2c(-c3nc(Nc4ccc(CCO)nc4)ncc3F)c[nH]c12)N1CCN(C)CC1 [Example 60, (R)-N-(3-(5-fluoro-2-((6-(2-hydroxyethyl)pyridin-3-yl)amino)pyrimidin-4-yl)-1H-indol-7-yl)-3-methoxy-2-(4-methylpiperazin-1-yl)propanamide] | 4.6 μL/min/10^6 cells | 158 nM | 1340 nM | 0.25 nM | 17.6 nM | > 10000 nM | 7 µL/min/mg

The next compounds have a lower IC50 (JAK2) than those just listed; values first:

Rat Hepatocyte CLint [1] | IC50 (JAK2) | IC50 (TYK2) | IC50 (JAK1) | IC50 (phosphorylation of STAT6) | IC50 (JAK3) | microsomal CLint at 1 μM [2] | SMILES
6.3 μL/min/10^6 cells | 68 nM | 996 nM | 0.21 nM | 11.5 nM | 4760 nM | 11.7 µL/min/mg | COC[C@H](C(=O)Nc1cccc2c(-c3nc(Nc4ccc5c(c4)NC(=O)C5)ncc3F)c[nH]c12)N1CCN(C)CC1 [Example 37, (R)-N-(3-(5-fluoro-2-((2-oxoindolin-6-yl)amino)pyrimidin-4-yl)-1H-indol-7-yl)-3-methoxy-2-(4-methylpiperazin-1-yl)propanamide]
24.0 μL/min/10^6 cells | 44 nM | 922 nM | 0.16 nM | 16 nM | > 10000 nM | > 300 µL/min/mg | COC[C@H](C(=O)Nc1cccc2c(-c3nc(Nc4cnc(C(=O)OC)c(C)c4)ncc3F)c[nH]c12)N1CCN(C)CC1 [Example 57, methyl (R)-5-((5-fluoro-4-(7-(3-methoxy-2-(4-methylpiperazin-1-yl)propanamido)-1H-indol-3-yl)pyrimidin-2-yl)amino)-3-methylpicolinate]
4.0 μL/min/10^6 cells | 22 nM | 512 nM | 0.14 nM | 18.4 nM | > 10000 nM | 21.9 µL/min/mg | COC[C@H](C(=O)Nc1cccc2c(-c3nc(Nc4ccc5c(c4)C(=O)OCC5)ncc3F)c[nH]c12)N1CCN(C)CC1 [Example 64, (R)-N-(3-(5-fluoro-2-((1-oxoisochroman-7-yl)amino)pyrimidin-4-yl)-1H-indol-7-yl)-3-methoxy-2-(4-methylpiperazin-1-yl)propanamide]
12.7 μL/min/10^6 cells | 12 nM | 545 nM | 0.35 nM | 20.3 nM | > 10000 nM | 25 µL/min/mg | COC[C@H](C(=O)Nc1cccc2c(-c3nc(Nc4cnc(CCO)c(OC)c4)ncc3F)c[nH]c12)N1CCN(C)CC1 [Example 66, (R)-N-(3-(5-fluoro-2-((6-(2-hydroxyethyl)-5-methoxypyridin-3-yl)amino)pyrimidin-4-yl)-1H-indol-7-yl)-3-methoxy-2-(4-methylpiperazin-1-yl)propanamide]
